Where a name gives a salt, the structure may show the parent alone.
Legend:
[1] = hydrolysate; as worded; cited from earlier work
physchem = assay: physchem
Excerpt: Therefore, propylene glycol was used as a basic solvent in the formulation of the present patent.

Solubility in propylene glycol (in words) (physchem)	Compound	other results
	COc1ccc([C@@H]2Sc3ccccc3N(CCN(C)C)C(=O)[C@@H]2O)cc1 [deacetyldiltiazem]	Activity relative to the activity of diltiazem hydrochloride [1]: 20%-40%
insoluble	sodium carboxymethylcellulose	
insoluble	hydroxypropyl methylcellulose	
	COc1ccc([C@@H]2Sc3ccccc3N(CCN(C)C)C(=O)[C@@H]2OC(C)=O)cc1 [diltiazem hydrochloride, reference compound]	solubility (physchem; organic solvent or mixture): 79 mg/mL
